The results in this text go back to US4875922A, “Pyrimidine derivatives” (Imperial Chemical Industries PLC, priority 1986, dated 1989).

One assay concerns Spring Barley. Description: Intermediate Retardant Test, spring barley. It is filed as in vivo, Spring Barley (Atem/kym). The following applies: Hordeum vulgare, 672 h, overall spray, approximately 28 days, Table VII, read-out: Percentage Reduction in Height of Spring Barley (Compared to formulation blank). The text has this: (§1) Three species are involved in this test RICE, SPRING-BARLEY and APPLES. The variety and growth stages at spray are outlined in Table V. Compounds were applied at 500 ppm and 2000 ppm respectively (0.5 kg and 2 kg/ha^-1 at a field volume of 1000 l/ha^-1) as an overall spray except in the case of certain tests on APPLES. This gives a foliar and root component in the test, i.e., this test will detect the activity of both root and foliar acting compounds. The intermediate retardant test on APPLES of which the results are given in Table IX was different, in that a foliar (only) spray at 2000 ppm was compared with a root drench, also at 2000 ppm. The rice was grown in 4" `paddy` pots, i.e., the roots and bottom of the stems are immersed in water under conditions corresponding to those in paddy fields. Spring barley and apples were grown in 4" pots. The plants were assessed for height to top-most ligule at approximately 28 days after treatment for spring barley and rice and for height to apex at approximately 28 days after the treatment for apples. In each case the result for the 500 ppm and 2000 ppm test for each compound is compared to the height of the formulation blank in that test, presented as a percentage reduction in height compared to the formulation blank.
(§2) The prior art compound was compared with compounds of the present invention in side-by-side comparisons using the Intermediate Retardant Test described in Example 62, and the results are given in Tables X to XII where `A` is the prior art compound, 2-methyl-1-isopropyl-1-(pyrimidin-5-yl)-propan-1-ol).

Assay [1] has as its system Rice. Kind of assay: Whole plant screen for plant growth regulator activity, rice (RC). It is filed as in vivo, Rice (Ishikari). The conditions noted are these: 4000 ppm (4 kg/ha), visual score after 2-6 weeks. The gist of the method: (§3)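 Compounds sprayed at 4000 ppm (4 kg/ha in 1000 l/ha) by tracksprayer at a defined leaf stage. Plants then grown in glasshouse at 25° C. day/22° C. night (wheat and barley 16° C. day/13° C. night), 16 hour photoperiod. Morphology visually assessed after 2-6 weeks against formulation blanks.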

For a further assay, the system named is Tomato. Kind of assay: Whole plant screen for plant growth regulator activity, tomato (TO). It is filed as in vivo, Tomato (Ailsa Craig). The conditions noted are these: 4000 ppm (4 kg/ha), visual score after 2-6 weeks. The essentials:
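Tomato (Ailsa Craig), one plant per 3-inch peat pot, sprayed at 2–2½ leaves with 4000 ppm (4 kg/ha in 1000 l/ha) by track sprayer. Glasshouse 25 °C day/22 °C night, 16 h photoperiod; morphology visually scored after 2–6 weeks against formulation blanks.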

The next assay concerns Apples. Kind of assay: Intermediate Retardant Test, apples, foliar spray compared with root drench. It is filed as in vivo, Apples (Red Delicious). The following applies: 672 h, approximately 28 days, Table IX, read-out: Percentage Reduction in Height of Apples (Compared to formulation blank); for percent reduction in plant height at 2000 ppm: 2000 ppm (Foliar); for percent reduction in plant height at 2000 µg/mL: soil, 2000 pmm (Root), root drench.
Source text: as §1, §2

A further assay concerns Wheat. Kind of assay: Whole plant screen for plant growth regulator activity, wheat (WW). The following applies: WW, 4000 ppm (4 kg/ha), visual score after 2-6 weeks; for T = Tillering or side shooting: * = decrease in tillering. It is filed as in vivo, Wheat (Timmo). The essentials:
as §3

The subject of the next assay is Barley. Description: Whole plant screen for plant growth regulator activity, barley (BR). It is filed as in vivo, Barley (Atem). The conditions noted are these: BR, 4000 ppm (4 kg/ha), visual score after 2-6 weeks; for T = Tillering or side shooting: * = decrease in tillering. The essentials:
as §3

A further assay deals with Apple. Kind of assay: Whole plant screen for plant growth regulator activity, apple (AP). It is filed as in vivo, Apple (Red Delicious). The conditions noted are these: 4000 ppm (4 kg/ha), visual score after 2-6 weeks. The essentials:
as §3

Assay [2] deals with Rice. Description: Intermediate Retardant Test, rice. It is filed as in vivo, Rice (Ishikari). The conditions noted are these: Oryza sativa, 672 h, overall spray, approximately 28 days, Table VI, read-out: Percentage Reduction in Height of Rice (Compared to formulation blank).
Source text: as §1, §2

Molecules are shown by their SMILES.

Consider `CC(C)C#CC(O)(c1cncnc1)C(C)C` (stereo not shown) [Compound 9, 2-Methyl-1-(3-methylbut-1-yne)-1-(pyrimidin-5-yl)propan-1-ol], for which, in the assay on Spring Barley, the percent reduction in plant height at 500 ppm is 20% and the percent reduction in plant height at 2000 ppm was 49%. Moreover, in the assay on Rice [1], the “A = Apical damage” value was 1 (10-30%), the “G = Greening effect” value was 1 (10-30%), the “I = Interligular or internodal length reduction” value is listed as 1 (10-30%) and the “R = Retardation” value is on record as 1 (10-30%). Also, in the assay on Tomato, the “G = Greening effect” value was 1 (10-30%), the “I = Interligular or internodal length reduction” value is recorded as 1 (10-30%) and the “R = Retardation” value is reported as 1 (10-30%). In addition, in the assay on Apples, the percent reduction in plant height at 2000 ppm is 0% and the percent reduction in plant height at 2000 µg/mL came out at 63%. Besides, in the assay on Wheat, the “G = Greening effect” value is given as 2 (31-60%), the “I = Interligular or internodal length reduction” value is 3 (61-100%), the “R = Retardation” value is listed as 2 (31-60%) and the “T = Tillering or side shooting” value is on record as 2 (31-60%). Besides, in the assay on Barley, the “G = Greening effect” value was 2 (31-60%), the “I = Interligular or internodal length reduction” value is on record as 3 (61-100%), the “R = Retardation” value is 2 (31-60%) and the “T = Tillering or side shooting” value was 2 (31-60%). Also, in the assay with Apple, the “G = Greening effect” value is given as 1 (10-30%), the “I = Interligular or internodal length reduction” value is given as 3 (61-100%) and the “R = Retardation” value is recorded as 3 (61-100%). In addition, in the assay with Rice [2], the Percent reduction in rice height vs formulation blank at 500 ppm is 11% and the Percent reduction in rice height vs formulation blank at 2000 ppm is 18%.

`CC(C)CCC#CC(O)(c1cncnc1)C(C)C` (stereo not shown) [Compound 12, 2-Methyl-1-(5-methylhex-1-yne)-1-(pyrimidin-5-yl)-propan-1-ol]: the percent reduction in plant height at 500 ppm with Spring Barley was found to be 3%. For the same compound, the percent reduction in plant height at 2000 ppm in the assay with Spring Barley is 19%; in the assay with Apples, 2%. The “G = Greening effect” value in the assay on Rice [1] is 1 (10-30%); in the assay on Tomato, 1 (10-30%); in the assay with Wheat, 1 (10-30%); in the assay with Barley, 2 (31-60%); with Apple, 1 (10-30%). Also, the “I = Interligular or internodal length reduction” value was 2 (31-60%) with Rice [1], 2 (31-60%) in the assay on Wheat, 3 (61-100%) in the assay with Barley and 3 (61-100%) in the assay on Apple. The “R = Retardation” value with Rice [1], in the assay on Wheat, with Barley and in the assay on Apple was 2 (31-60%) each time. Also, the figures for the “T = Tillering or side shooting” value with Rice [1] (* = decrease in tillering), with Wheat and in the assay with Barley were 1 (10-30%), 1 (10-30%) and 3 (61-100%), respectively. The percent reduction in plant height at 2000 µg/mL in the assay with Apples worked out at 58%. Besides, the Percent reduction in rice height vs formulation blank at 500 ppm in the assay with Rice [2] is 5%. Further, in the assay with Rice [2], the Percent reduction in rice height vs formulation blank at 2000 ppm turned out to be 8%.
